Data set [1] can be described thus: pH of tank mix. It counts as physicochemical. As for the experimental part:
The liquid aqueous composition may have a pH value of at least pH 4.0, preferably of at least 6.0, better of at least 7.0, more preferably of at least 7.5, especially preferred of at least 8.0 and in particular of at least 8.5. The liquid aqueous composition may have a pH of up to 13.0, preferably of up to 11.0 and in particular of up to 9.0. The pH value is usually determined at 20° C.

Data set [2] can be described thus: Volatility: loss of dicamba from aqueous tank mix on petri dish. The class given is physicochemical. The following applies: 70° C., 24 h, atmospheric pressure. As for the experimental part: The volatility was determined by analyzing the loss of material by HLPL at 70° C. after 24 h at atmospheric pressure. A sample of the aqueous tank mix (300 l/ha) was placed on the petri dish with a defined area (corresponding to a desired field application rate, such as 500 g/ha pesticide).
The application rate was 500 g/ha dicamba (free acid), 1000 g/ha potassium glyphosate, 300 g/ha Genamin® T050 (“Ad2”, 300 g/ha Preference® (“Ad3”) and optionally 250, 500 or 1000 g/ha K2CO3. Deionised water (hardness <1° dH) was used to prepare the samples. Dicamba BAPMA refers to the bis(3-aminopropyl)methylamine salt of dicamba.

Structures are written as SMILES.

This is an account of results in patent US20140171319A1, “Aqueous Composition Comprising a Pesticide and a Base Selected from an Alkali Salt of Hydrogencarbonate” (BASF SE, priority 2011, published 2014).

Consider `CN(CCCN)CCCN.COc1c(Cl)ccc(Cl)c1C(=O)O` [Dicamba BAPMA, bis(3-aminopropyl)methylamine salt of dicamba], for which, in data set [1] (Example 7 tank mix, 500 g/ha dicamba (free acid), deionised water (hardness <1° dH)), the “pH of tank mix” value stood at 6.3. Also, the “Loss of dicamba, Loss (wt %)” value in data set [2] (500 g/ha dicamba (free acid), 1000 g/ha potassium glyphosate where Gly-K, deionised water) is listed as under 1 wt %.

Turning to `COc1c(Cl)ccc(Cl)c1C(=O)O` [Dicamba free acid, dicamba], in data set [1] (Example 6 tank mix, application rate 500 g/ha dicamba, 300 l/ha), the “pH of tank mix” value was determined as 3.0. Also, in data set [2] (application rate 500 g/ha dicamba, tank mix 300 l/ha), the “Loss of dicamba, Loss (wt %)” value stood at 80 wt %.
